In patent US20230174633A1, “METHODS AND COMPOSITIONS FOR MODULATING LIPID STORAGE IN ADIPOSE TISSUE” (MEMORIAL SLOAN KETTERING CANCER CENTER, priority 2020, published 2023):

How the values were obtained:
C57B1/6J mice = assay: Treatment of C57Bl/6J mice fed 45% or 10% lipid diet (diet-induced obesity); assay type: in vivo, mouse; conditions: 1,200 mg PLX5622/kg of food
Description: (§1) Mice and diets. All experiments on mice were realized in accordance with an animal license issued by the Institutional Review Board (IACUC 15-04-006) from MSKCC. All mice were maintained under SPF conditions. C57B1/6J male mice were purchased from Jackson laboratories. Rosa26^LSL-Tomato (Stock No: 007908), Rosa26^LSL-^YFP (Stock No:006148), Rosa26^mTmG (Stock No: 007576) and Lepr^-/-(db/db) (herein referred to as Lepr^-/-; Stock No: 000697) mice were purchased from Jackson laboratories and bred in house. Csf1r^Cre, Csf1r^MeriCreMer, and Csf1r^fl/fl mice were obtained from J W. Pollard (The University of Edinburgh), Cx3cr1^GFP/+ mice were obtained from Drs. Dan Littman (NYU Skirball institute), Flt3^Cre mice were obtained from Thomas Boehm (Max Planck institute) and Tnfrsf11a^Cre mice were obtained from Y. Kobayashi (Matsumoto Dental University). Ccr2^-/- mice were obtained from IF. Charro (UCSF) Csf1r^-/- mice were backcrossed to FVB/NJ for more than 10 generations. Mice were fed ad libitum a rodent irradiated diet containing 45% kcal from lipids (Research Diets Inc., reference D12451i) or 10% kcal from lipids (Research Diets Inc., reference D12450hi) for 8 weeks. In mice supplemented with the CSF-1R inhibitor PLX5622 (Plexxikon), the aforementioned diets were impregnated with 1200 mg of inhibitor per kg of food. In the experiment named 45%>10% the mice were fed 45% lipid diet for 8 weeks then 10% lipid diet for 2 weeks and compared to mice fed 10% lipid diet for 10 weeks. Mice were weighed weekly. Tnfrsf11a^Cre; Csflr^f/f and Csf1r^Cre; Csf1r^f/f mice are osteopetrotic and as such lack teeth. To prevent confounding systemic effects due to nutritional intake problems, the Tnfrsf11a^Cre; Csf1r^f/f Csf1r^Cre; Csf1r^f/f and control littermates were fed a nutritionally fortified water gel. The nutritional gels were replaced every 12 hours.
Glucose and insulin tolerance tests were performed as described; in brief, for the glucose tolerance test, the mice were fasted for 4h before experiment, but had water ad libitum. The weight and glycaemia were measured, and the mice were injected intraperitoneally with 2 g glucose (Thermo Scientific) per kg of body weight. Following the glucose injection, glycemia was measured every 30 min for 2 hours. For the insulin tolerance test, the mice were fasted for 4h before experiment, but had water ad libitum. The weight and the glycaemia were measured, and the mice were injected with 0.25U insulin (Sigma) per kg of body weight. Following the glucose injection, glycemia was measured every 30 min for 2 hours. To measure the glycaemia, the tail of the animals was pricked with a 27G needle and a drop of blood was placed on the glucometer (ACCU-CHECK AVIVA, Roche). […]
(§2) Metabolic analysis of Leptin receptor deficient mice, PLX5622-treated mice, anti-PDGFcc treated mice, and control C57Bl/6J mice. Animals were individually housed in a temperature controlled Promethion Metabolic Screening System (Sable Systems International, NV). Food intake was acquired gravimetrically and ambulatory activity was acquired using a laser matrix. Mice were acclimated to this environment on a 12 hr light/dark cycle for 48 hr before the indicated length of recording (24 hr to 120 hr) period began. Fecal bomb calorimetry was performed on feces collected during the last day of metabolic cage recording period, dehydrated in an oven at 60C for 48 hr, then combusted in technical duplicates with a Parr 6725 Semimicro Calorimeter to determine gross caloric intake.
Infrared imaging of mice. Infrared images were taken on the last day of metabolic analysis using a FLIR T430sc Infrared Camera. These images were into RAW files and then analyzed in AMIDE. A box was drawn over region of interest (ROI); interscapular (70×30), inguinal (35×35) and dorsal. The 10% top warmest pixels were used for interscapular and inguinal quantifications. The 20% top warmest pixels were used for dorsal quantifications. […]

Lepr^-/- (db/db) mice = assay: PLX5622 treatment of leptin-receptor deficient mice that spontaneously develop obesity; assay type: in vivo, mouse
Description: as §1, §2
Triglyceride Measurement for Mice. To measure triglycerides, ~ 100 mg of mouse liver was homogenized in 100 µl of PBS + 0.05% Tween 20. Triglyceride was then measured using the free glycerol reagent (Sigma; F6428) as described in the manufacturer’s protocol and normalized to the liver weight.
To quantify the size of the adipocytes, the software image J was used. Regions of interest (ROI) were drawn following the cellular membrane of the adipocytes and the surface of the ROI was determined by the software. 50 adipocytes were measured per field of view of the eWAT. Adipocytes were measured on 3 fields of view, taken with N-Achroplan 10x/0.25 objective. Crown-like structures (CLS) were quantified on the same fields of view. Crown like structures were defined as microscopic foci of dying adipocytes surrounded by macrophages as visualized by H&E staining.

[1] = test system: epididymal fat pad explants; assay: eWAT (epididymal fat pad) explants cultured ex vivo, lipid storage by adipocytes; assay type: cell-based, mouse; conditions: Tnfrsf11a^Cre; Csf1r^f/f fat pads; 100 ng/ml PDGFcc, 10 ng/ml VEGFb or 10 ng/ml IGF1 on days 0, 3, 6
Protocol: Whole Mount Imaging and Cytology of Sorted Macrophages. For whole mount immunofluorescence imaging, after anesthesia and blood collection by cardiac puncture, the mice were perfused with 10 mL PBS at room temperature. Approximately 3 mm^3 pieces of the tissue were incubated in 4% paraformaldehyde (PFA) (Electron Microscopy) diluted in PBS for 30 min at room temperature with agitation, then rinsed with PBS and stained with directly conjugated antibodies for 30 minutes. Then the samples were rinsed with PBS 3× and mounted on cavity slides (Sigma) with Fluoromount G (eBioscience). Approximately 50 µm thick Z-stack and tile scan were acquired with LSM880 Zeiss microscope with 40x/1.3 (oil). Image analysis was performed using Imaris (Bitplane) software.
In Vitro Epididymal Adipose Tissue Explants. Epididymal fat pads of 4-day-old Tnfrsf11a^Cre+Csf1r^fl/fl mice and littermates were dissected and incubated in RPMI with 10% heat de-activated FBS at 37° C. for 14 days. Fresh medium was added to the explants on day 7. At the termination of the experiment, the explants were fixed in 4% PFA for 30 minutes at room temperature with agitation and then rinsed in PBS and permeabilized for 15 minutes in PBS + 0.03% Triton. Subsequently, the explants were blocked with 2% BSA and stained with directly conjugated antibodies. To remove macrophages from wt epididymal fat pads in vitro, 15 µM of the CSF1R inhibitor PLX5622 was added to explants on day 0 and 7 following the addition of fresh medium. For the in vitro rescue experiments, epididymal fat pads of Tnfrsf11a^Cre; Csf1r^fl/fl mice and littermates as well as […] treated fat pads were supplemented with 100 ng/ml of recombinant mouse PDGFcc (R&D systems), 10 ng/ml of recombinant mouse VEGFb (R&D systems), or 10 ng/ml of recombinant mouse IGF1 (R&D systems) three times on days 0, 3, and 6.

PDGFRB/B homodimers = PDGFRB/B homodimers (Homo sapiens, UniProt P09619); conditions: Gilbertson et al. 2001; cited from earlier work
PDGFRB/B homodimers, sequence (P09619 33-1106, species assumed): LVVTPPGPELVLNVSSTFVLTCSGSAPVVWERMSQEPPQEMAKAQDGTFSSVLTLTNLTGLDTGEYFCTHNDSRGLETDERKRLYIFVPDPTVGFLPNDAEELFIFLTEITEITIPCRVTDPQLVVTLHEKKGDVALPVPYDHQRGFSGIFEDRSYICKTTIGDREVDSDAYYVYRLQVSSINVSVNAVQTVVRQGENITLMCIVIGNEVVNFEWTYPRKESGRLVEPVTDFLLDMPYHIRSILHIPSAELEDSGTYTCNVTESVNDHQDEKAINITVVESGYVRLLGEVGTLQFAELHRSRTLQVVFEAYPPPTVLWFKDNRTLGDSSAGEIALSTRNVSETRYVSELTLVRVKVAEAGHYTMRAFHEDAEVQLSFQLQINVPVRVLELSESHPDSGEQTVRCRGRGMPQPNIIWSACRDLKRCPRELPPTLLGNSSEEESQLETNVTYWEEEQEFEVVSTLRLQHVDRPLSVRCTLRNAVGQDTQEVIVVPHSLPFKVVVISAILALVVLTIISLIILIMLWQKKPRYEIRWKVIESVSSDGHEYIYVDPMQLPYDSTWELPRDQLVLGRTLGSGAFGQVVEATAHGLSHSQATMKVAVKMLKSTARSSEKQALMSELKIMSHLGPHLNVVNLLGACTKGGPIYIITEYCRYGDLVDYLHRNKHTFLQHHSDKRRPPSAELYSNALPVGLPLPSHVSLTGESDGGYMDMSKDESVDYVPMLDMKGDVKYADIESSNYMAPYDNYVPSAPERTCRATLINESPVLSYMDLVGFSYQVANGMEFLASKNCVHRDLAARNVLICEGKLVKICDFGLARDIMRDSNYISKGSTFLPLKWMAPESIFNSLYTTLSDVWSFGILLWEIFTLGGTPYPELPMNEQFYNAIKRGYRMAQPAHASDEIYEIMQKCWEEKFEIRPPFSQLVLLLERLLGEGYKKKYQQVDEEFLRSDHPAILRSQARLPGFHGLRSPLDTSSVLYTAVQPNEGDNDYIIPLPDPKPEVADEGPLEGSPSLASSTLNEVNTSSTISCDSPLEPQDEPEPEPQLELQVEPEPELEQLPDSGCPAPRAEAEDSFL

PDGFRA/A homodimers = PDGFRA/A homodimers (Homo sapiens, UniProt P16234); conditions: Gilbertson et al. 2001; cited from earlier work
PDGFRA/A homodimers, sequence (P16234 24-1089, species assumed): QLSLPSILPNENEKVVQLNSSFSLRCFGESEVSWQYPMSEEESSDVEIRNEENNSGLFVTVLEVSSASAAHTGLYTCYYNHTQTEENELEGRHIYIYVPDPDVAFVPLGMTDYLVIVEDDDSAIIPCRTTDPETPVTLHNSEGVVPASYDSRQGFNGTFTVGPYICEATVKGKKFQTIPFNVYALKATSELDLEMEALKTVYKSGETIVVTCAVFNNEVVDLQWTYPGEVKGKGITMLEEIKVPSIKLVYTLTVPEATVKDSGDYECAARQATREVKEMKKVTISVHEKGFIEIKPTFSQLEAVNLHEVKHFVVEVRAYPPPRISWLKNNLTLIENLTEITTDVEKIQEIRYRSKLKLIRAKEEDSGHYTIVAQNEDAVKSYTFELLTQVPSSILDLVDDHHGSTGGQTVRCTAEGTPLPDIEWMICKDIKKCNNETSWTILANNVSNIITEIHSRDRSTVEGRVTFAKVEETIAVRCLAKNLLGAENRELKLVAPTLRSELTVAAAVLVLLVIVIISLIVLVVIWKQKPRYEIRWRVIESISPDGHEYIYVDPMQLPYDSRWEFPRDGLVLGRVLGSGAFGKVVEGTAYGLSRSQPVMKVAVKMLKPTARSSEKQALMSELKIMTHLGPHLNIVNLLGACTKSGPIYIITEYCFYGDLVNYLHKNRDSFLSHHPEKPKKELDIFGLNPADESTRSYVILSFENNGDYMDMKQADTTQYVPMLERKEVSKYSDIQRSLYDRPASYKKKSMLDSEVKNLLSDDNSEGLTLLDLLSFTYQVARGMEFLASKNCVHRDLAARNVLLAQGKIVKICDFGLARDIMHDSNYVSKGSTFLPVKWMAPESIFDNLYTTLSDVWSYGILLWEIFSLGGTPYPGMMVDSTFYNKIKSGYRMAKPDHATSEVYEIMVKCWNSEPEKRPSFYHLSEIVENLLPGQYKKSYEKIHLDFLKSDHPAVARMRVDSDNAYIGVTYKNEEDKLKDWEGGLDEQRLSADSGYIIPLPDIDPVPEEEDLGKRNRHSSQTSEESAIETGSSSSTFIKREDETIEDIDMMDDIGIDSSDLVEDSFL

[2] = 10% lipid diet + PLX5622 for 8 weeks

With COc1ncc(F)cc1CNc1ccc(Cc2c[nH]c3ncc(C)cc23)c(F)n1 [PLX5622] the “Dio2 expression in the iBAT” value (C57B1/6J mice) was “increased”, the “F4/80+ Tim4- and Tim4+ macrophages” value (C57B1/6J mice) was “lacked both F4/80^+ Tim4^- and Tim4^+ macrophages” and the “Ucpl expression in the iBAT” value (C57B1/6J mice) was “increased”. For the same molecule, the TNF/IL1 production (C57B1/6J mice; 45% lipid diet) was “protected against”, the hepatic steatosis (C57B1/6J mice; 45% lipid diet) was “protected against” and the metabolic syndrome (C57B1/6J mice; 45% lipid diet) was “protected against”. For the same molecule, the “Pdgfcc expression in fat pads” value (C57B1/6J mice; high fat diet) was “did not increase”, the adipocyte hypertrophy (C57B1/6J mice; high fat diet) was “did not develop adipocyte hypertrophy” and the “visceral and subcutaneous white adipose tissue mass” value (C57B1/6J mice; high fat diet) was “did not increase”. For the same molecule, the weight gain (C57B1/6J mice; high fat diet) was “gained less weight than controls”, the “Pdgfc expression in adipose tissue” value (Lepr^-/- (db/db) mice; 10% lipid diet + PLX5622) was “decreased” and the adipocyte size (Lepr^-/- (db/db) mice; 10% lipid diet + PLX5622) was “decreased”. For the same molecule, the liver inflammation (Lepr^-/- (db/db) mice; 10% lipid diet + PLX5622) was “decreased”, the adipose tissue mass (Lepr^-/- (db/db) mice; [2]) was “decreased” and the weight gain (Lepr^-/- (db/db) mice; [2]) was “decreased”. The Dio2 expression (Lepr^-/- (db/db) mice; iBAT, PLX5622 in diet) was “increased” and the Ucpl expression (Lepr^-/- (db/db) mice; iBAT, PLX5622 in diet) was “increased”.

For “IGF1: recombinant mouse IGF1 (R&D systems)”, the “rescue of bodipy staining (lipid storage)” value (shortened to “rescue of bodipy staining”) [1] was “not”.

B1: PDGFcc: mature PDGF-CC protein, growth factor domain dimer released by removal of the CUB domain; exemplary SEQ ID NO: 2 (protein, listed as Homo sapiens)
chain: VVDLNLLTEEVRLYSCTPRNFSVSIREELKRTDTIFWPGCLLVKRCGGNCACCLHNCNECQCVPSKVTKKYHEVLQLRPKTGVRGLHKSLTDVALEHHEECDCVCRGSTGG
modifications: homodimer
In the case of B1, the “interaction with PDGFRB/B homodimers” value (PDGFRB/B homodimers) is given as “fails to interact” and the “binding to PDGFRA/A homodimers” value (PDGFRA/A homodimers) is given as “high affinity”.

B2: recombinant PDGFcc: Recombinant mouse PDGFcc, R&D systems Cat# 1447-PC-025/CF, active/cleaved form, SEQ ID NO: 3 (protein, listed as Mus sp.)
chain: VVNLNLLKEEVKLYSCTPRNFSVSIREELKRTDTIFWPGCLLVKRCGGNCACCLHNCNECQCVPRKVTKKYHEVLQLRPKTGVKGLHKSLTDVALEHHEECDCVCRGNAGG
For B2, the “rescue of bodipy staining” value [1] was “rescues bodipy staining to control levels”.

B3: VEGFb: recombinant mouse VEGFb (R&D systems) (protein, UniProt P49766 22-207, looked up)
Vascular endothelial growth …: PVSQFDGPSHQKKVVPWIDVYARATCQPREVVVPLSMELMGNVVKQLVPSCVTVQRCGGCCPDDGLECVPTGQHQVRMQILMIQYPSSQLGEMSLEEHSQCECRPKKKESAVKPDRVAIPHHRPQPRSVPGWDSTPGASSPADIIHPTPAPGSSARLAPSAVNALTPGPAAAAADAAASSIAKGGA
For B3, the “rescue of bodipy staining” value [1] was “can also rescue lipid storage”.
